Measurements reported in patent publication US6699676B1, “Uses of ouabain and ouabain-like molecules in apoptosis related pathologies” (Corporation du Centre de Recherche du Centre, Hospitalier …, priority 1999, dated 2004).

Legend:
[1] = tested on: VSMC-E1A; assay: Chromatin cleavage assay in VSMC-E1A; type: cell-based, rat
Description: FIG. 2. Effect of ouabain on chromatin cleavage in VSMC-E1A. (A) Kinetics of the accumulation of chromatin fragments in control (curves 1, 3) and ouabain-treated (curves 2, 4) VSMC-E1A in the presence of 10% calf serum (CS, curves 1, 2) or in CS-free medium (curves 3, 4). Mean values ±S.E. obtained in experiments performed in quadruplicate are given. (B) Content of chromatin fragments in VSMC-E1A subjected to 6 hr of incubation in serum-supplied medium with or without 1 mM ouabain, 0.25 μM staurosporine, 1 μM okadaic acid and 350 mM mannitol. Mean values±S.E. obtained in 3 experiments performed in quadruplicate are given. ★, ★★ p<0.05 and 0.001 compared to ouabain-untreated cells. In both experiments, ouabain was added 1 hour before triggering of apoptosis.
(§1) Cells were incubated in K^+-containing medium consisting of 91 mM NaCl, 5 mM KCl, 0.9 mM NaH2PO4, 44 mM NaHCO3, 1.8 mM CaCl2, 0.8 mM MgCl2, 33 mM HEPES and 5 mM D-glucose (pH 7.4) (lines 1 and 2) or in K^+-depleted medium (equimolar substitution of KCl by NaCl, line 3) with or without 10% calf serum (CS) and 1 mM ouabain as indicated. In experiments with VSMC-MYC and VSMC-E1A, cells were preincubated for 1 hr with ouabain or with K^+-depleted medium in the presence of CS and then subjected to treatment with serum-free media. After 24 hours (VSMC) or 6 hours (VSMC-MYC and VSMC-E1A), the content of chromatin fragments was measured as described in Experimental Procedures. Mean values±S.E. obtained in 3 experiments performed in quadruplicate (VSMC) or triplicate (VSMC-MYC, VSMC-E1A) are given. ★, ★★ p<0.05 and 0.001 compared to the controls.
To estimate chromatin cleavage, cells were incubated for 1 hr in the presence of 10% calf serum (CS) in the control solution (DMEM, [Na^+]=137 mM; [K^+]=5 mM—line 1) or under equimolar substitution of NaCl by KCl ([Na^+]=14 mM; [K^+]=128 mM—line 2) with or without 1 mM ouabain and then for an additional 6 hours in the same media with or without CS. Intracellular Na^+ and K^+ content was measured as steady-state distribution of isotopes after 24 hours preincubation of cells in control Na^+-enriched solution containing 0.5 μCi/ml ^86Rb or 2 μCilml ^22Na, and additional 6 hours incubation in Na^+—(line 1) or K^+—(line 2) enriched medium, containing 10% CS and isotopes with the same specific activity with or without 1 mM ouabain. For more details see Experimental Procedures. Mean values±S.E. obtained in 3 experiments performed in triplicate (ion content) or quadruplicate (chromatin cleavage) are given. ★p<0.001 compared to ouabain-untreated cells.
VSMC-E1A cells were pretreated with compounds indicated in the left column during 2 hours in DMEM containing 10% calf serum and then additional 3 hours in the absence or presence of calf serum. The increment of the content of chromatin fragments triggered by serum withdrawal in control cells was taken as 100%. Means+S.E. from experiments performed with quadruplicate are given. ★p<0.001 as compared to control.
(§2) Cells. VSMC were obtained by explant methods from aortas of 10- to 13-week-old male rats as described previously (17), cultured in DMEM with 10% calf serum, 100 U/ml penicillin, 100 µg/ml streptomycin and used between 10 to 16 passages. Cells transfected with c-myc (VSMC-MYC) and E1A-adenovirus (VSMC-E1A) were obtained in accordance with a previously-described protocol (18,19) and were cultured in the same medium with the addition of 500 µg/ml genticin. Jurkat cells were obtained from the American Type Culture Collection and cultured in RPMI 1640 medium supplied with 10% calf serum, antibiotics, sodium pyruvate, glutamate and β-mercaptoethanol.
Chromatin cleavage assay. Chromatin cleavage in VSMC was estimated by a technique described previously in detail (10). Briefly, VSMC grown in 24-well dishes were labeled for 24 hours in serum-supplied DMEM with [^3H]-thymidine (1 μCi/ml), washed with 2×2 ml of DMEM and incubated in serum-supplied DMEM. […]

[2] = tested on: VSMC; assay: Chromatin cleavage assay in non-transfected VSMC; type: cell-based, rat
Description: as §1
VSMC growing in 6-well (LDH release) or 24-well (chromatin cleavage assay) plates were preincubated for 3 hours with or without 1 mM ouabain. In part of the experiments, the cells were subjected to 30 min incubation at 46° C. (heat-treated cells, line 3). They were then incubated in the absence or presence of 10% calf serum during additional 8 hr and chromatin cleavage and LDH release were measured as indicated in Experimental Procedures and with a spectrophotometric kit (Sigma), respectively. Means±S.E. from experiments performed in triplicate (LDH release) or quadruplicate (chromatin cleavage) are given. ★, ★★ p<0.05 and 0.001 compared to ouabain-untreated cells. #p<0.001 compared to serum-supplied, heat-untreated cells.
as §2
Chromatin cleavage assay. Chromatin cleavage in VSMC was estimated by a technique described previously in detail (10). Briefly, VSMC grown in 24-well dishes were labeled for 24 hours in serum-supplied DMEM with [^3H]-thymidine (1 μCi/ml), washed with 2×2 ml of DMEM and incubated in serum-supplied DMEM. […] After 15 min, the cell lysate was transferred to Ependorf tubes, sedimented (12,000 rpm, 10 mm), and 1 ml of supernatant was transferred for the measurement of radioactivity (A1t). The remaining radioactivity from pellets and wells was extracted with 0.5 ml of 1% SDS/4 mM EDTA mixture, combined and counted (A2). Chromatin cleavage was quantified as the content of chromatin fragments normalized by total content of [^3H]-labeled DNA in accordance with the equation [1.5×(A1t−A1o)/(A2+A1t−1.5A1o)]×100% where A1o is the value of A1t before induction of apoptosis. […] At the time intervals shown in FIG. 4, 100 μl of cell suspension was mixed with 100 μl of PBS contairung 0.5% triton X100, and the content of chromatin fragments was measured as described previously in detail (20).

CN[C@@H]1C[C@H]2O[C@@](C)([C@@H]1OC)n1c3ccccc3c3c4c(c5c6ccccc6n2c5c31)C(=O)NC4 [staurosporine]
content of chromatin fragments ([1]; VSMC-E1A, 6 hr, serum-supplied medium, 0.25 μM staurosporine, 1 μM okadaic acid): 30.1±4.7%

C[C@@H]1O[C@@H](O[C@H]2C[C@@H](O)[C@]3(CO)[C@H]4[C@H](O)C[C@]5(C)[C@@H](C6=CC(=O)OC6)CC[C@]5(O)[C@@H]4CC[C@]3(O)C2)[C@H](O)[C@H](O)[C@H]1O [Ouabain, 1β,3β,5,11α,14,19-hexahydroxycard 20 [22]-enolide 3-[6-deoxy-α-L-mannopyrano-sidel]]
apoptosis triggered by staurosporine and okadaic acid ([1]; VSMC-E1A, 1 mM ouabain, FIG. 2b): blocked
Increment of chromatin fragments triggered by serum withdrawal(%) ([1]; VSMC-E1A, 1 mM, pretreated 2 hours then 3 hours with or without calf serum, control increment taken as 100%): 21 ± 3 %
Chromatin fragments (%) ([1]; VSMC-E1A, 10% CS, 1 mM ouabain, 1 hr preincubation, 6 hours): 1.5 ± 0.3 %
Chromatin fragments (%) ([1]; VSMC-E1A, CS-free, 1 mM ouabain, 1 hr preincubation, 6 hours): 5.7 ± 0.6 %
baseline and serum withdrawal-induced chromatin cleavage ([1]; VSMC-E1A, ouabain added 1 hour before, FIG. 2a): blocked baseline as well as serum withdrawal-induced chromatin cleavage
Chromatin fragments (%) ([1]; ouabain-treated VSMC-E1A, 1 mM, 10% CS, medium [Na+]o=14, [K+]o=128 mM, 1 hr + 6 hours): 5.0%
Chromatin fragments (%) ([1]; ouabain-treated VSMC-E1A, 1 mM, 10% CS, medium [Na+]o=137, [K+]o=5 mM, 1 hr + 6 hours): 1.9%
Chromatin fragments (%) ([1]; ouabain-treated VSMC-E1A, 1 mM, CS-free, medium [Na+]o=14, [K+]o=128 mM, 1 hr + 6 hours): 32.0%
Chromatin fragments (%) ([1]; ouabain-treated VSMC-E1A, 1 mM, CS-free, medium [Na+]o=137, [K+]o=5 mM, 1 hr + 6 hours): 6.3%
Chromatin fragments (%) ([2]; VSMC, 10% CS, 1 mM ouabain, 24 hours): 1.6 ± 0.3%
Chromatin fragments (%) ([2]; VSMC, CS-free, 1 mM ouabain, 24 hours): 2.5 ± 0.6 %
Chromatin fragments (%) ([2]; serum-deprived VSMC, 3 hours preincubation 1 mM ouabain, additional 8 hr): 1.8 ± 0.3 %
Chromatin fragments (%) ([2]; serum-supplied VSMC, 3 hours preincubation 1 mM ouabain, additional 8 hr): 1.3 ± 0.4 %
Chromatin fragments (%) ([2]; serum-supplied, heat-treated (46° C., 30 min) VSMC, 1 mM ouabain, 8 hr): 1.6 ± 0.4%

OC[C@@H](O)[C@@H](O)[C@H](O)[C@H](O)CO [mannitol]
chromatin cleavage under hyperosmotic shrinkage ([1]; control and ouabain-treated VSMC-E1A, 350 mM mannitol, 6 hr): insensitive to hyperosmotic shrinkage
